In patent US20260217699A1, “BERBERINE TAUROURSODEOXYCHOLATE COMPOSITIONS AND METHODS THEREOF” (SHENZHEN HIGHTIDE BIOPHARMACEUTICAL LTD., priority 2023, published 2026):

Legend:
Type in all cases: in vivo, Sprague-Dawley rats
[1] = tested on: 6-OHDA Stereotactic Injection Induced PD Rats; assay: Rotarod test; conditions: for Time on the Rod: Mean ± SEM, N=10, Model 63.250 ± 9.871
Description: (§1) The rats were respiratory anesthetized with isoflurane; the head was fixed to ensure that there was no movement and the brain surface was adjusted to be flat; the head was shaved, and a skin incision was made along the sagittal suture to expose the fontanel point; the glass electrode was positioned to the fontanel, and the axes of the coordinate monitor were zeroed to locate the brain areas of the SN and the Str based on the coordinates, in which the SN: AP=−5.0 mm; ML=−1.9 mm; DV=−8.5 mm, and Str: AP=+0.5 mm; ML=−3.0 mm; DV=−6.0 mm. […]; slowly inserted the needle into the localized area of SN and Str, waited for 10 min, and then administered the drug of 6-OHDA at a rate of […] for 10 min, and each animal was given […] of each of SN and Str area, and then the needle was slowly withdrawn after the drug was administered for 10 min, and the PD rat model was established.
The rotation speed of the rotary rod fatigue meter was set to 20 rpm/min with the test time of 5 min. The animals were placed on the rotating rod in batches for testing, and the time each animal spent on the rod was recorded to evaluate the motor coordination ability of the rats. Information on the rotarod test can also be found in the literature (Bohlen, et al. 2009 J Neurosci Methods 178(1):10-4).
In this study, 16 Sprague Dawley (SD) male rats 180g-220g were used to establish a PD model by stereotactic unilateral injection of 6-OHDA in the substantia nigra (SN) and striatum (Str) brain areas after one week of acclimatization feeding and were randomly divided into 2 groups of 8 rats each. One group was dosed with the test compound BTUDC 500 mg/kg (QD, p.o.) and the other group was the Model group, which was given an equal volume of 0.5% CMC-Na (QD, p.o.) as the test compound group. […]
(§2) Experimental Methods: Seventy 180-220g SD male rats were selected and fed for one week for accumulation, and the PD model was established by stereotactic unilateral injection of 6-OHDA in the Substantia Nigra (SN) and Striatum (Str) regions and were randomly divided into five groups according to their body weights including Madopar group (Madopar, 50 mg/kg), BTUDC-L group (BTUDC, 100 mg/kg), BTUDC-M group (BTUDC, 500 mg/kg), and BTUDC-H group (BTUDC, 1000 mg/kg), with 10 animals in each group. […] At the end of the administration, the test articles were evaluated for tolerance in this model and in behavioral apomorphine—asymmetric rotation test, beam test, rotarod test and grip strength test, immunofluorescence staining (TH, Ibal), and cerebrospinal fluid inflammatory factor assays to evaluate the pharmacodynamic effects of the test articles. […]

[2] = tested on: 6-OHDA Stereotactic Injection Induced PD Rats; assay: Apomorphine-asymmetric rotation test
Description: as §1
The animals were tested three weeks post-administration. 0.5 mg/kg of apomorphine was injected intraperitoneally. The number of rotations of each rat in 30 min were recorded, and the rat appeared to rotate in place toward the opposite side of the injury using the rotating forelimb as a support point. […]
as §2

[3] = tested on: 6-OHDA Stereotactic Injection Induced PD Rats; assay: Balance beam test; conditions: for Foot Slips Times / Passage Time: Mean ± SEM, N=10; for Foot Slips Times: Model 1.7 ± 0.2; for Passage Time: Model 10.9 ± 1.3
Description: as §1
The rat was placed on a balance beam. The time was recorded it took for the rat to pass the balance beam as well as the number of foot slips (feet leave the top of the balance beam). The average of the two successful passing times and the number of foot slips were used as the evaluation criteria for the rat's locomotor balance ability. Information regarding beam test can also be found in the literature (Allbutt, et al. 2007 J Neurosci Methods 159(2):195-202; Fine, et al. 2014 Brain Res. 1574:96-104).
In this study, 16 Sprague Dawley (SD) male rats 180g-220g were used to establish a PD model by stereotactic unilateral injection of 6-OHDA in the substantia nigra (SN) and striatum (Str) brain areas after one week of acclimatization feeding and were randomly divided into 2 groups of 8 rats each. One group was dosed with the test compound BTUDC 500 mg/kg (QD, p.o.) and the other group was the Model group, which was given an equal volume of 0.5% CMC-Na (QD, p.o.) as the test compound group. The animals were administered once a day for 21 consecutive days starting from the second day after modeling to evaluate the tolerability and therapeutic potential of BTUDC in the 6-OHDA PD model.
Experimental Methods: Seventy 180-220g SD male rats were selected and fed for one week for accumulation, and the PD model was established by stereotactic unilateral injection of 6-OHDA in the Substantia Nigra (SN) and Striatum (Str) regions and were randomly divided into five groups according to their body weights including Madopar group (Madopar, 50 mg/kg), BTUDC-L group (BTUDC, 100 mg/kg), BTUDC-M group (BTUDC, 500 mg/kg), and BTUDC-H group (BTUDC, 1000 mg/kg), with 10 animals in each group. Another 10 SD male rats were taken for sham operation (only 4 μL of 0.9% NS containing 0.02% ascorbic acid was given to the SN and Str brain regions during modeling) as the Sham group. The drug was administered by gavage once daily continuously for 21 days starting on the second day of modeling (first day of dosing, D1). General observation was made during the dosing period. At the end of the administration, the test articles were evaluated for tolerance in this model and in behavioral apomorphine—asymmetric rotation test, beam test, rotarod test and grip strength test, immunofluorescence staining (TH, Ibal), and cerebrospinal fluid inflammatory factor assays to evaluate the pharmacodynamic effects of the test articles. Inflammatory factors tested included interleukin 6 (1L-6), inflammatory factor […], Tumor Necrosis Factor alpha (TNF-α), inflammatory assays were done in a total of 4 groups included Sham, Model, Madopar and BTUDC-H groups.

[4] = BTUDC-H 1000 mg/kg p.o. Qd 21 days, p<0.001 vs Model
[5] = BTUDC-M 500 mg/kg p.o. Qd 21 days, p<0.001 vs Model

COc1ccc2cc3[n+](cc2c1OC)CCc1cc2c(cc1-3)OCO2.C[C@H](CCC(=O)NCCS(=O)(=O)[O-])[C@H]1CC[C@H]2[C@@H]3[C@@H](O)C[C@@H]4C[C@H](O)CC[C@]4(C)[C@H]3CC[C@]12C [BTUDC, Berberine tauroursodeoxycholate]
Rotarod Test Rod time ([1]; 500 mg/kg QD p.o. 21 days, Model 44.063 ± 4.6049, P < 0.001 vs Model): 252.413 ± 14.4032 s | Time on the Rod [1, 4]: 172.625 ± 17.355 s | Time on the Rod ([1]; BTUDC-L 100 mg/kg p.o. Qd 21 days, no significance mark): 103.220 ± 5.806 s | Time on the Rod [1, 5]: 148.070 ± 21.760 s | difference in number of ipsilateral rotations within 30 minutes vs Model group ([2]; 500 mg/kg QD p.o. 21 days, p>0.05): no statistically significant difference | number of rotational circles within 30 min of apomorphine injection vs Model group ([2]; BTUDC-H 1000 mg/kg p.o. Qd 21 days): significantly lower | Number of Ipsilateral Rotation ([2]; within 30 minutes of apomorphine injection, 500 mg/kg/day p.o. 21 days, 8 rats, Model 126.380 ± 31.681): 109.000 ± 23.670 | Beam Test Number of feet slips ([3]; 500 mg/kg QD p.o. 21 days, Model 1.313 ± 0.3772, P < 0.001 vs Model): 0.250 ± 0.0945 | Beam Test Passing time ([3]; 500 mg/kg QD p.o. 21 days, Model 9.938 ± 1.8088, P < 0.001 vs Model): 3.563 ± 0.6228 s | Foot Slips Times [3, 4]: 0.6 ± 0.2 | Passage Time [3, 4]: 4.8 ± 0.4 s | Foot Slips Times ([3]; BTUDC-L 100 mg/kg p.o. Qd 21 days, p<0.05 vs Model): 1.0 ± 0.3 | Passage Time ([3]; BTUDC-L 100 mg/kg p.o. Qd 21 days, p<0.01 vs Model): 8.0 ± 0.7 s | Foot Slips Times ([3]; BTUDC-M 500 mg/kg p.o. Qd 21 days, p<0.01 vs Model): 0.8 ± 0.2 | Passage Time [3, 5]: 6.4 ± 0.7 s
